Data on three molecules can be found in publication PMC11062922 (Nature Chemical Biology, 2023).

Values joined by “and” are separate entries in the source; they are usually repeats but may differ in a detail not shown here. Equal values may be shown once. Read-outs that look alike come from different tables or passages of the source.

One may read the EC50 as the midpoint of the concentration-response curve. A high value points to a less potent agent. The term IC50 denotes the concentration that inhibits the measured activity by half.

Test [1] deals with T1, PKN2 (Homo sapiens, UniProt Q16513).
T1 construct: a mixture of lysates from five cancer cell lines; endogenous in cells
The test is described as follows: Kinobeads full dose-response competition binding: PKN2. The note with it: Gene Name PKN2.

In test [2] the target is T2, CK2alpha1 (CSNK2A1) (Homo sapiens, UniProt P68400).
T2 construct: purchased ProQinase
The test is described as follows: Recombinant kinase activity assay (ProQinase, FlashPlate radiometric): CK2alpha1. It counts as biochemical. Here is the method: (§1) Kinase activity assays were performed by ProQinase. Dose-dependent activity inhibition of CDK1/cyclinB, CK2alpha1 and CK2alpha2 were measured using a FlashPlateTM-based radiometric assay at KM (ATP) of the respective kinase.

Test [3] deals with T3, CK2alpha2 (CSNK2A2) (Homo sapiens, UniProt P19784).
T3 construct: purchased ProQinase
The test is described as follows: Recombinant kinase activity assay (ProQinase, FlashPlate radiometric): CK2alpha2. It counts as biochemical. The method, then: as §1

Test [4] addresses T4, ERN1 (Homo sapiens, UniProt O75460).
T4 construct: endogenous in cells
Briefly: Kinobeads two-dose competition binding: ERN1. The note with it: read-out: Lestaurtinib Drugmatrix value, Gene Name ERN1.

Test [5] deals with T5, EPHB4 (Homo sapiens, UniProt P54760).
T5 construct: endogenous in cells
T5 sequence (P54760 16-987): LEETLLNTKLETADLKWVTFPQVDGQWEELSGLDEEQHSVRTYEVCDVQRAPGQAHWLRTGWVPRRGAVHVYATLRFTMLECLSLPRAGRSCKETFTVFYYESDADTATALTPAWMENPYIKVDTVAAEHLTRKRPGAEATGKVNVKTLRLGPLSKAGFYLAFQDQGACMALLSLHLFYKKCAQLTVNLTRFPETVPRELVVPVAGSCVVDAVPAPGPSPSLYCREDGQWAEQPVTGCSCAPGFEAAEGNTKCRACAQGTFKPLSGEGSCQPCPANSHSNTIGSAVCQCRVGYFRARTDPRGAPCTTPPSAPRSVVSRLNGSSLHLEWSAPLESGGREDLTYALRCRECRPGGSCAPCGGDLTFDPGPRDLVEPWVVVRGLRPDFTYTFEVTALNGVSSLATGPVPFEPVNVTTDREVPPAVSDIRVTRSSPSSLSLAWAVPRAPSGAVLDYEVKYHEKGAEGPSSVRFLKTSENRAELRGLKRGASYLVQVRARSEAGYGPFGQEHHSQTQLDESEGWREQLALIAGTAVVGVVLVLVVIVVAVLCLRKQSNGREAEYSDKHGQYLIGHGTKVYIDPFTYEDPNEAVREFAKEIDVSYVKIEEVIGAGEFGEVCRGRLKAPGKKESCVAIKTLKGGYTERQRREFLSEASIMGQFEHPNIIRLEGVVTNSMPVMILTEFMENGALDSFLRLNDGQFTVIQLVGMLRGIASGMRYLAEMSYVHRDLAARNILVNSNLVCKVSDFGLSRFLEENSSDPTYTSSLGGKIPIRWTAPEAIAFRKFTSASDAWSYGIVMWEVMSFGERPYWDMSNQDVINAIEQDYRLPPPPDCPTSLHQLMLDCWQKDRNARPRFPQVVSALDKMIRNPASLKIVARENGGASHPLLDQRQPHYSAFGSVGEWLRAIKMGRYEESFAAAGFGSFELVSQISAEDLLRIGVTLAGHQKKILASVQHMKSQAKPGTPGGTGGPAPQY
The test is described as follows: Kinobeads two-dose competition binding: EPHB4. The note with it: read-out: Lestaurtinib Drugmatrix value, Gene Name EPHB4; target EPHB4; each column = one Lestaurtinib control replicate (batch_R1-R3).

Test [6] concerns the target T6, ABL2 (Homo sapiens, UniProt P42684).
T6 construct: endogenous in cells
The test is described as follows: Kinobeads two-dose competition binding: ABL2. The note with it: read-out: Lestaurtinib Drugmatrix value, Gene Name ABL2.

The target in test [7] is T7, EPHB3 (Homo sapiens, UniProt P54753).
T7 construct: endogenous in cells
T7 sequence (P54753 34-998): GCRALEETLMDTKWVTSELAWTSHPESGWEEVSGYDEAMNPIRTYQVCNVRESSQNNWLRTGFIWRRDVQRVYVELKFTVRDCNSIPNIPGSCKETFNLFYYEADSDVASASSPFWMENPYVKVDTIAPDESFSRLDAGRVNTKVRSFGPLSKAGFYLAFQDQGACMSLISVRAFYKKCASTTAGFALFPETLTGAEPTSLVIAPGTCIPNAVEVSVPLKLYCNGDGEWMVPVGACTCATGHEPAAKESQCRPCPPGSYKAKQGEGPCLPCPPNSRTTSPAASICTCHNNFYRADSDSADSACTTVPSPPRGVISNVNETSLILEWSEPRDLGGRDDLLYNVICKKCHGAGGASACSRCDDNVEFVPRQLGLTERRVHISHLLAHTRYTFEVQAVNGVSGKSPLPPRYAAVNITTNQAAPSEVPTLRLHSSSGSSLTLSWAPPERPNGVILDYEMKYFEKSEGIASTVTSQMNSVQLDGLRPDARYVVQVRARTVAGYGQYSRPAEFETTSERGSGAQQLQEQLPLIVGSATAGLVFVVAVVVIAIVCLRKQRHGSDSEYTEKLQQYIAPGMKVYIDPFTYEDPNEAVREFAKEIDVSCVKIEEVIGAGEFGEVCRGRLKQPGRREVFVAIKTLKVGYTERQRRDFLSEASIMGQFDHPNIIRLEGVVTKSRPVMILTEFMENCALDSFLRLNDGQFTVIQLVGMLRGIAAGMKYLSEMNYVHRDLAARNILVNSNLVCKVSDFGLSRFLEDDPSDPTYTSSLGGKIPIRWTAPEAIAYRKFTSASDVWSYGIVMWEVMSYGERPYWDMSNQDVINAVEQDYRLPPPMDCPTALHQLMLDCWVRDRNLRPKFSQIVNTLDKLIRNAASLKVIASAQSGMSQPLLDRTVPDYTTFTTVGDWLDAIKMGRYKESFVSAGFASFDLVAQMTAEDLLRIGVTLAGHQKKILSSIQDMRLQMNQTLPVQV
The test is described as follows: Kinobeads two-dose competition binding: EPHB3. The note with it: read-out: Lestaurtinib Drugmatrix value, Gene Name EPHB3.

For test [8], the target named is T8, EPHA4 (Homo sapiens, UniProt P54764).
T8 construct: endogenous in cells
The test is described as follows: Kinobeads two-dose competition binding: EPHA4. The note with it: read-out: Lestaurtinib Drugmatrix value, Gene Name EPHA4.

The target of test [9] is T9, HCK (Homo sapiens, UniProt P08631).
T9 construct: endogenous in cells
The test is described as follows: Kinobeads two-dose competition binding: HCK. As to conditions: read-out: Lestaurtinib Drugmatrix value, Gene Name HCK; target HCK; each column = one Lestaurtinib control replicate (batch_R1-R3).

T1 sequence (Q16513 whole entry): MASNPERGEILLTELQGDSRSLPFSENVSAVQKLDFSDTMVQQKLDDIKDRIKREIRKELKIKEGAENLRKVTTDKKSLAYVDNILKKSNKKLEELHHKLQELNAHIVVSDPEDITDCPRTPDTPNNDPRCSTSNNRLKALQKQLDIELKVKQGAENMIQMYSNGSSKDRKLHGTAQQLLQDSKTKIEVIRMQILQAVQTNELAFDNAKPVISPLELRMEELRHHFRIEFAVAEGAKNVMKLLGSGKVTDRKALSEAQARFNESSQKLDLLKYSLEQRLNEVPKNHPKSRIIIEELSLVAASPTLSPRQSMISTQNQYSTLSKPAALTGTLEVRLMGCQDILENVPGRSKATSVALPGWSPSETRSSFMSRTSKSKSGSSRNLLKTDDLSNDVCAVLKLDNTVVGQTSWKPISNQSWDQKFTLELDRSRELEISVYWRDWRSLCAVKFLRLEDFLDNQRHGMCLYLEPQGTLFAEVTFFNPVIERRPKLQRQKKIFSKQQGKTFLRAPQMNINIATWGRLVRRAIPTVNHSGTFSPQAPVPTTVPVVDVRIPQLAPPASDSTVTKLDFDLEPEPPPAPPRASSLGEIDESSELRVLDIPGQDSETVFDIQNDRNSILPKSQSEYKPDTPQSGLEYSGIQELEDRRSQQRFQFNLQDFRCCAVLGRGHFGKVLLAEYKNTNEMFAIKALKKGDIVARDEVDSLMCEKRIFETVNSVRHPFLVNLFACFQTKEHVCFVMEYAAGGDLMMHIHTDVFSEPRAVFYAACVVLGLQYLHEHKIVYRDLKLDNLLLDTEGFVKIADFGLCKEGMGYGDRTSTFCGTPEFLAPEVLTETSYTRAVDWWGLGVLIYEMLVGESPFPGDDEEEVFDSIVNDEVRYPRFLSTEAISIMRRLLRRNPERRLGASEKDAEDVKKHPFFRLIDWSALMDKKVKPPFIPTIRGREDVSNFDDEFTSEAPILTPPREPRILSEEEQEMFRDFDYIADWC
T2 sequence (P68400 whole entry): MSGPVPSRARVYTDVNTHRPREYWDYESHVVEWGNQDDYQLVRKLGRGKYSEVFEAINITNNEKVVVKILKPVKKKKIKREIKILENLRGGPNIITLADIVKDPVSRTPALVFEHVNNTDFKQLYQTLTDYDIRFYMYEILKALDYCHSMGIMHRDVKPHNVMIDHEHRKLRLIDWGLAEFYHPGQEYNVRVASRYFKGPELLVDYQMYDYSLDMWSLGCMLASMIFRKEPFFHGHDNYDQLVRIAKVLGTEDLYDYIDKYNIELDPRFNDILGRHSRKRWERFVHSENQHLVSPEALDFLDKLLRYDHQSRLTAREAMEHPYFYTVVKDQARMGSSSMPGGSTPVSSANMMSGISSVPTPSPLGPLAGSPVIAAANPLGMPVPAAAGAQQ
T3 sequence (P19784 whole entry): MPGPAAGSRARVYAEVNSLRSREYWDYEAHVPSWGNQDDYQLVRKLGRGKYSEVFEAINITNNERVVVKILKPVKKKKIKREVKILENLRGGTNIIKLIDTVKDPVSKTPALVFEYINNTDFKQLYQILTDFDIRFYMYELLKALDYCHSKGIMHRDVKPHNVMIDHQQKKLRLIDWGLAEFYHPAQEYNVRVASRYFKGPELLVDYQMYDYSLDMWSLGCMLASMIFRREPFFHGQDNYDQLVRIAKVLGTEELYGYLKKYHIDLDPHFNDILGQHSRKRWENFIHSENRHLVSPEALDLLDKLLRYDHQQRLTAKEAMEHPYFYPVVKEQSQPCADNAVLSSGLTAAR
T4 sequence (O75460 19-977): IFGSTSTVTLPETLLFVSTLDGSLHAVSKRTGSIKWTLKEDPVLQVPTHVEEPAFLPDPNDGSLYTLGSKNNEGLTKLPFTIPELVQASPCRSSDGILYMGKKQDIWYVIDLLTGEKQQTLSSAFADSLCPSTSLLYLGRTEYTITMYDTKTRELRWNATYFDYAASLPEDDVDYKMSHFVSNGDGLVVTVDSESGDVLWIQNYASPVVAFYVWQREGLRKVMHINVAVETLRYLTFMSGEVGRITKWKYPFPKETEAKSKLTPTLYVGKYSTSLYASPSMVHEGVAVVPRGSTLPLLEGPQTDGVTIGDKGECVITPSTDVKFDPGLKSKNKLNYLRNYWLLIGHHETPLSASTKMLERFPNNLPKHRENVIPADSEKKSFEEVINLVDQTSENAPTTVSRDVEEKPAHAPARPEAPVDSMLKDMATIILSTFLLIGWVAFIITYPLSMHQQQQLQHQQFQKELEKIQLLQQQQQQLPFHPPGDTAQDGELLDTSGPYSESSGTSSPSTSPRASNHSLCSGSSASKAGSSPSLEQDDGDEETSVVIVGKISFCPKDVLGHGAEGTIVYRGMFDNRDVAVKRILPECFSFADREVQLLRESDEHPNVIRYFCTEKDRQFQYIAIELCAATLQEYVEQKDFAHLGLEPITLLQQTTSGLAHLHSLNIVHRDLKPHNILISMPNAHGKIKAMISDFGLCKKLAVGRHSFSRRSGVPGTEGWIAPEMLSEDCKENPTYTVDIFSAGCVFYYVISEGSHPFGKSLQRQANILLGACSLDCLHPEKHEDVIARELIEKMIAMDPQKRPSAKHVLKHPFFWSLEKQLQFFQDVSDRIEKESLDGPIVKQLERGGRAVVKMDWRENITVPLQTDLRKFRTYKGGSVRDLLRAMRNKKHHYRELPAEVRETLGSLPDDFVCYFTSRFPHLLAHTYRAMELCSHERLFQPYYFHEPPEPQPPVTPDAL
T9 sequence (P08631 whole entry): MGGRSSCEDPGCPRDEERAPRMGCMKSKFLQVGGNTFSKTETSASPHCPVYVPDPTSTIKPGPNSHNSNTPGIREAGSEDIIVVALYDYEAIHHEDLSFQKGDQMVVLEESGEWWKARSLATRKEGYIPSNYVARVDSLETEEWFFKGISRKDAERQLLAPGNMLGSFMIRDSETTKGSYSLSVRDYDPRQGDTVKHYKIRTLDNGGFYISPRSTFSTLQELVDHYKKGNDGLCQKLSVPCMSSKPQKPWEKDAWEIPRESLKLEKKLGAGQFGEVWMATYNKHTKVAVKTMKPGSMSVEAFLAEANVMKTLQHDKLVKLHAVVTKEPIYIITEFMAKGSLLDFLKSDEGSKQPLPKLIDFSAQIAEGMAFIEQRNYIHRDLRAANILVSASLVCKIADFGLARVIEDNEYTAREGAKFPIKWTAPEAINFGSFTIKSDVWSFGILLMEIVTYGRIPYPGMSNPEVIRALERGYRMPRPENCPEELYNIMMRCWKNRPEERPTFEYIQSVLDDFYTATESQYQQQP
T6 sequence (P42684 whole entry): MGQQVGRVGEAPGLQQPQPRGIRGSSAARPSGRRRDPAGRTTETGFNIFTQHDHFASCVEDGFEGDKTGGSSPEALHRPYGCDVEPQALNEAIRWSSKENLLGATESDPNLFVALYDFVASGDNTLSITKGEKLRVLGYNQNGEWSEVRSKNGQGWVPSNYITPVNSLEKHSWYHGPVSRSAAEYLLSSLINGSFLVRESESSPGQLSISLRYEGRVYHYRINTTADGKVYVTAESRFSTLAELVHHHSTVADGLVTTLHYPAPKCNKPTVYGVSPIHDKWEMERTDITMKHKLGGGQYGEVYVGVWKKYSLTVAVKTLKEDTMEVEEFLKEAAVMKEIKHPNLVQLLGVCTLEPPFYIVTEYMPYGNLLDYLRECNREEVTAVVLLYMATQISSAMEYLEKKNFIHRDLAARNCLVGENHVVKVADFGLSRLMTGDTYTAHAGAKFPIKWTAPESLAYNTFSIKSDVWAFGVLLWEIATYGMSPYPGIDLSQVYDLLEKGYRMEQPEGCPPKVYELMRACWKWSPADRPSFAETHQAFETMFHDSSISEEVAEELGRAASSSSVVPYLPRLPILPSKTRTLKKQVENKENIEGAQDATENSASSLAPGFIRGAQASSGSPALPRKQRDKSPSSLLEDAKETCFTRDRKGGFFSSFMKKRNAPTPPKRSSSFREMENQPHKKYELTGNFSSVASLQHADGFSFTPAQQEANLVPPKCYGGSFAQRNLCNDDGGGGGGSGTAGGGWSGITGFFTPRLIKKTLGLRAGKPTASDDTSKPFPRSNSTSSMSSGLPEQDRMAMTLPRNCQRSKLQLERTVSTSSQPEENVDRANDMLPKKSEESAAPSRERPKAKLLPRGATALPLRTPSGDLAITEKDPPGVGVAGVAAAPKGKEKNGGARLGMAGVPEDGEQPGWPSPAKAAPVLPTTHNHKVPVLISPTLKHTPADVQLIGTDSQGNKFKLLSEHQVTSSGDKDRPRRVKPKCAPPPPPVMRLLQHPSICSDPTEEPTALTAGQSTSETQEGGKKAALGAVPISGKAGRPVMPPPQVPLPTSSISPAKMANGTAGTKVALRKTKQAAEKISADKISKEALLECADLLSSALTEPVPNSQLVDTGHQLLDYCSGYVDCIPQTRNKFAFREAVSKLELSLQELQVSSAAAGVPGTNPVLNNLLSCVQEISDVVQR

Turning to `CCn1c(-c2nonc2N)nc2c(C#CC(C)(C)O)nc(OCCN)cc21` [GSK902056A], in test [1] (0.3nM compound, DMSO = 1), the “Relative Intensity 0.3nM” value is 0.9769. For the same molecule, the “Relative Intensity 1nM” value in test [1] (1nM compound, DMSO = 1) is 1.016. Moreover, the “Relative Intensity 3nM” value in test [1] (3nM compound, DMSO = 1) is 1.0433. Besides, the “Relative Intensity 10nM” value in [1] (10nM compound, DMSO = 1) is recorded as 1.014. Further, the “Relative Intensity 30nM” value in [1] (30nM compound, DMSO = 1) worked out at 0.9503. For the same molecule, the “Relative Intensity 100nM” value in [1] (100nM compound, DMSO = 1) worked out at 0.8449. The “Relative Intensity 300nM” value in test [1] (300nM compound, DMSO = 1) is recorded as 0.6334. The “Relative Intensity 1000nM” value in [1] (1000nM compound, DMSO = 1) was 0.3485. Besides, the Kd in test [1] (EC50 with Correction, doses in nM, read-out: apparent Kd) came to 401 nM. Also, the midpoint of the response in [1] (eight-dose curve fit, doses in nM), the EC50, lay at 401 nM.

With `COc1cc(Nc2ncc3c(C)nc(-c4cc5ccccc5[nH]4)n3n2)cc(OC)c1OC` [GW869516X], the IC50 amounted to 85.1 nM in [2] (Enzyme CK2alpha1, Highest Assay Concentration 1.00E-06 M, read-out: IC50); 85 nM in test [2] (recombinant kinase activity assay at KM (ATP), read-out: Activity IC50 CSNK2A1); 33.7 nM in test [3] (Enzyme CK2alpha2, Highest Assay Concentration 1.00E-06 M, read-out: IC50); 34 nM in test [3] (recombinant kinase activity assay at KM (ATP), read-out: Activity IC50 CSNK2A2).

In the case of `C[C@]12O[C@H](C[C@]1(O)CO)n1c3ccccc3c3c4c(c5c6ccccc6n2c5c31)CNC4=O` [Lestaurtinib], the potency estimated from few doses in test [4] was 176 nM; in test [5] it was 207 nM and 689 nM; in test [6], 340 nM; in [7] it was 780 nM; in test [8], 268 nM; in test [9] it was 587 nM.
